How the values were obtained:
[1] = tested on: human gastric cancer cells (MKN-74); parameters: method as in PMID 23651559, PMID 25457491; details: cited from earlier work
[2] = tested on: colorectal cancer cells (HCT-15); parameters: method as in PMID 23651559, PMID 25457491; details: cited from earlier work
[3] = tested on: HCT-15 cocultured with stromal cells CCd-18Co; parameters: method as in PMID 23632919; details: coculture with stromal cells; cited from earlier work
[4] = tested on: MKN-74 cocultured with stromal cells Hs738; parameters: method as in PMID 23632919; details: coculture with stromal cells; cited from earlier work
[5] = Solubility in the culture medium (inferred from MTT curves); format: physicochemical; details: concentrations >25 µM
Protocol: (§1) Our first approach to assessing the anticancer activity of the novel 1,4-naphthoquinone/4-quinolone conjugates 11a–f on breast cancer cells involved comparing their effects in the MTT cell viability assay to determine the half-maximal inhibitory concentration (IC50) in the 2D cell culture model. Doxorubicin and 1,4-naphthoquinone were used as controls. Concentration-response curves were obtained with the conjugates at concentrations ranging from 0 to 200 µM. […] This observation aligns with the structural characteristics of this derivative, which features the largest alkyl substituent at position R^1.

[6] = tested on: MCF-7; assay: MTT cell viability assay, MCF-7 (2D culture); format: cell-based, human
Protocol: as §1
(§2) The IC50 values were calculated using GraphPad Prism v. 8.0.1, and the selectivity index was estimated as the ratio between the IC50 value of MCF10A/IC50 value of MDA-MB-231 or MCF-7 [33], for each compound.

[7] = tested on: MDA-MB-231; assay: MTT cell viability assay, MDA-MB-231 (2D culture); format: cell-based, human
Protocol: as §1, §2

[8] = tested on: tumor; parameters: method as in PMID 18974148; details: 2 mg/kg (body weight), three weeks of treatment; cited from earlier work
[9] = tested on: non-tumorigenic prostate epithelial cells (RWPE-1); details: cited from earlier work
[10] = tested on: refractory invasive prostate cancer cells (DU145); parameters: method as in PMID 18974148; details: cited from earlier work
[11] = tested on: MCF-7 human breast cancer cells; parameters: method as in PMID 33039723; details: cited from earlier work
[12] = tested on: MDA-MB-231 spheroids; assay: 3D-cell culture (spheroids), morphology and acid phosphatase viability, MDA-MB-231; format: cell-based, human; details: 25 µM, vs control, p < 0.05
From the text: 3D-cell cultures display features that resemble in vivo tumors: due to their tridimensional structure, cells are not provided with the same amounts of oxygen and nutrients in the center as on the surface, resulting in a gradient that leads to the formation of a necrotic core, similar to the in vivo tumor environment. In the 3D-cell culture model used here, spheroids are formed due to low interaction with the microplate bottom, promoted by its coating with agarose, and strong cell-to-cell interactions in MCF-7 cells, generating a finely compact and homogeneous spheroid. For MDA-MB-231 cells, the addition of collagen I is an extra stimulus necessary for spheroid stabilization. Spheroids were prepared and grown for 48 h and then treated with the compounds at 25 µM. After 48 h, morphological changes were observed, and their viabilities were measured as described in Section 3. […] These findings are in line with the viability test, which detected a reduction in the viabilities for all of them, which is significant compared to the control (p < 0.05), except for 11a in MDA-MB-231 spheroids (Figure 8C,D). […]
The procedure was performed as described by Gong et al., with a few modifications. […] The cell spheroids/aggregates were treated with fresh medium added to the compounds and their viability was evaluated after 48 h. […]

[13] = tested on: MCF10A; assay: MTT cell viability assay, non-tumor MCF10A
[14] = tested on: MDA-MB-231 cells; assay: Clonogenic assay, MDA-MB-231; format: cell-based, human; details: 25 µM, 24 h treatment, about 14 days growth
From the text: The clonogenic assay is an effective tool for investigating individual cells’ ability to form colonies. Tumor cells with the ability to generate an expanding family of descendants are clonogenic. Therefore, a clonogenic assay is a simple method to verify one of the important characteristics of cancer cells, which is the ability to detach from the site of origin and to form metastases in other locations. […] For instance, 90–99% of the tumor cells in FaDU tumors, a type of human squamous cell carcinoma observed in nude mice, are non-clonogenic. To achieve the main goal of cancer treatment, which is tumor eradication, it is necessary to inactivate all clonogenic cells through either cell killing or the induction of a permanent state of dormancy, thereby eliminating their clonogenic capacity. The assessment of the potential of a drug to achieve a curative outcome, i.e., effectively neutralizing clonogenic tumor cells, requires the utilization of experimental endpoints that accurately reflect the response of clonogenic cells. Clonogenic endpoints hold particular significance when novel anticancer agents are incorporated into curative therapeutic regimens, such as in combination with radiotherapy or chemotherapy. Thus, clonogenic assays were conducted for compounds 11a–f and 1,4-naphthoquinone.
Figure 6 The inhibition of colony formation by compounds 11a–f using MCF-7 (A,C) and MDA-MB-231 (B,D) cell lines. Cells were treated with derivatives 11a–f at 25 µM for 24 h. Subsequently, 400 cells were plated on 6-well plates for approximately 14 days. Then, cells were stained with crystal violet dye to visualize the colonies formed.

[15] = tested on: MCF-7 spheroids; assay: 3D-cell culture (spheroids), morphology and acid phosphatase viability, MCF-7; format: cell-based, human; details: 25 µM, 48 h
From the text: 3D-cell cultures display features that resemble in vivo tumors: due to their tridimensional structure, cells are not provided with the same amounts of oxygen and nutrients in the center as on the surface, resulting in a gradient that leads to the formation of a necrotic core, similar to the in vivo tumor environment. In the 3D-cell culture model used here, spheroids are formed due to low interaction with the microplate bottom, promoted by its coating with agarose, and strong cell-to-cell interactions in MCF-7 cells, generating a finely compact and homogeneous spheroid. For MDA-MB-231 cells, the addition of collagen I is an extra stimulus necessary for spheroid stabilization. Spheroids were prepared and grown for 48 h and then treated with the compounds at 25 µM. After 48 h, morphological changes were observed, and their viabilities were measured as described in Section 3. The exposure to the compounds for 48 h promoted visible changes in the morphologies of spheroids for both cell lines when compared to the controls (Figure 8). […] While it is more complicated to imply changes in the proliferative (surface) region of the MDA-MB-231 spheroids (Figure 8B), they are observed together with morphological changes after treatment, making them appear more crumbly and lose their round shape. These findings are in line with the viability test, which detected a reduction in the viabilities for all of them, which is significant compared to the control (p < 0.05), except for 11a in MDA-MB-231 spheroids (Figure 8C,D). We should also highlight that the concentrations necessary for an effect on spheroids are expected to be higher when compared to 2D-cell culture models. Here, we observed changes using 25 µM of each compound, as performed in the other experiments.
The procedure was performed as described by Gong et al., with a few modifications. A total of 5000 cells per well were plated on 96-well plates with bottoms previously covered with 50 µL of a 1% agarose solution. The plates were then centrifuged at 300× g for 10 min. For MDA-MB-231 cells, collagen I from rat tail (Gibco) was added to a 3 µg/mL final concentration in the cell suspension. […] The cell spheroids/aggregates were treated with fresh medium added to the compounds and their viability was evaluated after 48 h. Spheroids were photographed with an inverted microscope Bel INV-100 (Bel Engineering, Monza, Italy) equipped with a digital camera.
To measure spheroids viability, this viability assay was performed following Friedrich et al.. The medium was removed from wells and spheroids were washed with PBS. Then, 100 µL of a solution containing 2 mg/mL p-nitrophenyl phosphate (PNPP), 0.1 M citric acid, and 0.1% (v/v) Triton X, pH 5.0 were added. […]

[16] = tested on: MCF-7 cells; assay: Annexin V/PI apoptosis assay, MCF-7; format: cell-based, human; details: 50 µM
Protocol: We investigated apoptosis induction through the annexin V/PI protocol, as described in Section 3. Doxorubicin, 1,4-naphthoquinone, and cisplatin were used as controls. […] For MDA-MB-231 cells (Figure 5B), the effects observed were more prominent at the concentrations tested.
For the apoptosis assay, the manufacturer’s instructions were followed (Dead Cell Apoptosis Kit with Annexin V for Flow Cytometry, Thermo Fisher Scientific, MA, USA). The cells were analyzed in a Countess II FL cell counter (Thermo Fisher Scientific, Waltham, MA, USA).
Figure 5 Naphthoquinone-quinolone hybrids induce apoptosis in MCF-7 (A) and MDA-MB-231 (B) cells at different levels.

[17] = tested on: non-cancerous cell line MCF10A; parameters: method as in PMID 30129412; details: cited from earlier work
[18] = tested on: MDA-MB-231; parameters: method as in PMID 30129412; details: cited from earlier work
[19] = tested on: MCF-7; parameters: method as in PMID 30129412; details: cited from earlier work
[20] = tested on: 4T1; parameters: method as in PMID 30129412; details: cited from earlier work
[21] = low concentrations (<25 µM), effect plateaus above 25 µM

Q: Which results are given for `CSC(=NCn1c(C/C=C(\C)CCC=C(C)C)cc(=O)c2ccccc21)SC` [Compound 4, intervenolin]?
A: IC50 [1]: 7 µM; IC50 [2]: 3.7 µM; IC50 [3]: 0.5 µM; IC50 [4]: 0.4 µM

Q: Which “solubility in the medium” value [5] does the source give for `O=C1C=C(c2ccc3c(c2)c(=O)c(C(=O)O)cn3Cc2ccccc2)C(=O)c2ccccc21` [Compound 11e, 1-benzyl-6-(1,4-dioxo-1,4-dihydronaphthalen-2-yl)-4-oxo-1,4-dihydroquinoline-3-carboxylic acid] here?
A: low solubility

Q: What about the melting point of the same compound?
A: > 300 °C

Q: What about the “anticancer activity in MTT concentration-response curve, MCF-7” value [6, 21] of the same compound?
A: comparable to the most active derivatives at low concentrations

Q: And the “anticancer activity in MTT concentration-response curve, MDA-MB-231” value [7, 21]?
A: comparable to the most active derivatives at low concentrations

Q: For `CC1=CC(=O)c2c(O)cccc2C1=O` [plumbagin], which tumor reduction [8] is on record?
A: 90%

Q: And the “effect on RWPE-1” value [9]?
A: without affecting

Q: And the “apoptosis induction in DU145” value [10]?
A: selectively induces apoptosis

Q: For `Cc1ccc(NC(=O)c2ccc(NC3=C(Cl)C(=O)c4ccccc4C3=O)cc2)nc1` [Compound 7], which “cytotoxicity against MCF-7” value [11] is on record?
A: high cytotoxicity

Q: What does the source list for `CCOC(=O)c1cn(CC)c2ccc(C3=CC(=O)c4ccccc4C3=O)cc2c1=O` [Compound 11a, Ethyl 6-(1,4-dioxo-1,4-dihydronaphthalen-2-yl)-1-ethyl-4-oxo-1,4-dihydroquinoline-3-carboxylate]?
A: spheroid viability (acid phosphatase), MDA-MB-231 [12]: significant decrease was observed for all compounds, except for 11a; IC50 ([13]; Homo sapiens, MCF-10A, 24 h, read-out: IC50 ± SEM MCF10A): 10.6 ± 1.2 µM; cytotoxicity effect in MCF10A compared with doxorubicin ([13]; relative to doxorubicin): seven times lower; colony formation, MDA-MB-231 [14]: most effective; IC50 ([6]; Homo sapiens, MCF7, MTT, 24 h treatment, 2D culture, read-out: IC50 ± SEM MCF-7): 18.7 ± 1.1 µM; SI IC50 MCF10A/IC50 MCF-7 ([6]; selectivity index): 0.57 ± 0.12; IC50 ([7]; Homo sapiens, MDA-MB-231, MTT, 24 h treatment, 2D culture, read-out: IC50 ± SEM MDA-MB-231): 9.16 ± 1 µM; SI IC50 MCF10A/ IC50 MDA-MB-231 ([7]; selectivity index): 1.15 ± 0.15; spheroid morphology, MCF-7 [15]: changes in the morphology; early apoptosis induction (annexin V/PI), MCF-7 [16]: comparable

Q: Which “cytotoxicity against MCF10A” value [17] does the source give for `CCOC(=O)c1cn(CC)c2ccc(-n3cc(COC4=C(CC=C(C)C)C(=O)c5ccccc5C4=O)nn3)cc2c1=O` [Compound 10] here?
A: no significant cytotoxicity

Q: What about the “activity against MDA-MB-231” value [18] of the same compound?
A: demonstrated activity

Q: What about the “activity against MCF-7” value [19] of the same compound?
A: demonstrated activity

Q: What about the “activity against 4T1” value [20] of the same compound?
A: demonstrated activity

— paper PMC11203957, “Naphthoquinone-Quinolone Hybrids with Antitumor Effects on Breast Cancer Cell Lines—From the Synthesis to 3D-Cell Culture Effects” (International Journal of Molecular Sciences, 2024)
